One series has as its system Rattus norvegicus. Kind of series: Anti-allodynic activity in MSU-induced Wistar rat gouty arthritis model assessed as mechanical allodynia at 50 mg/kg, iv administered once daily for 7 days and measured on day 2. Format: functional, organism-based. The note with it: time 7.0 day.
Series [1] can be described thus: Half life in CD-1 mouse at 1 mg/kg, iv measured upto 24 hrs by LC-MS/MS analysis. Type of series: ADME, organism-based. The note with it: in vivo.
Series [2] has as its target T1, hERG (KCNH2) (Homo sapiens, UniProt Q12809). Description: Inhibition of hERG at 1 uM relative to control. Type of series: toxicity.
Series [3] is described as follows: Plasma protein binding in rat relative to control. Format: ADME, cell-free. Conditions: read-out: PPB (converted).
Series [4] in a line: Renal toxicity in cynomolgus monkey upto 500 mg/kg/day measured for 14 days. Type of series: organism-based, Macaca fascicularis. Conditions: in vivo, 336 h, time 14 day.
Series [5] in a line: Oral bioavailability in Sprague-Dawley rat at 1 mg/kg measured upto 24 hrs by LC-MS/MS analysis. Type of series: ADME, organism-based. Conditions: in vivo.
A short description of series [6]: Plasma protein binding in dog relative to control. Format: ADME, cell-free, Canis lupus familiaris. Conditions: read-out: PPB (converted).
A short description of series [7]: Apparent permeability across apical to basolateral side in dog MDCK cells. Type of series: ADME, cell-based, Canis lupus familiaris.
Series [8] is described as follows: Half life in cynomolgus monkey at 1 mg/kg, iv measured upto 24 hrs by LC-MS/MS analysis. The note with it: in vivo. Format: ADME, organism-based, Macaca fascicularis.
Series [9] is described as follows: Hepatic toxicity in cynomolgus monkey upto 500 mg/kg/day measured for 14 days. Type of series: organism-based, Macaca fascicularis. Conditions: in vivo, 336 h, time 14 day.
Series [10] in a line: Plasma protein binding in human relative to control. Type of series: ADME, cell-free. The note with it: read-out: PPB (converted).
The nature of series [11]: Plasma protein binding in mouse relative to control. Type of series: ADME, cell-free. The note with it: read-out: PPB (converted).
Series [12] is described as follows: Volume of distribution at steady state in cynomolgus monkey at 1 mg/kg, po or 1 mg/kg, iv measured upto 24 hrs by LC-MS/MS analysis. Format: ADME, organism-based, Macaca fascicularis. Conditions: in vivo.
Series [13] can be described thus: Half life in Beagle dog at 1 mg/kg, iv measured upto 24 hrs by LC-MS/MS analysis. The note with it: in vivo. Format: ADME, organism-based, Canis lupus familiaris.
Series [14] is described as follows: Volume of distribution at steady state in Beagle dog at 1 mg/kg, po or 1 mg/kg, iv measured upto 24 hrs by LC-MS/MS analysis. Type of series: ADME, organism-based, Canis lupus familiaris. Conditions: in vivo.
A short description of series [15]: Volume of distribution at steady state in CD-1 mouse at 1 mg/kg, po or 1 mg/kg, iv measured upto 24 hrs by LC-MS/MS analysis. Type of series: ADME, organism-based. Conditions: in vivo.
The nature of series [16]: Oral bioavailability in Beagle dog at 1 mg/kg measured upto 24 hrs by LC-MS/MS analysis. Conditions: in vivo. Type of series: ADME, organism-based, Canis lupus familiaris.
Series [17] is described as follows: Solubility of compound at pH 1.50 to 7.50 by RP-HPLC analysis. Type of series: physicochemical. The note with it: buffer, pH 1.5.
A short description of series [18]: Oral bioavailability in CD-1 mouse at 1 mg/kg measured upto 24 hrs by LC-MS/MS analysis. Conditions: in vivo. Format: ADME, organism-based.
A short description of series [19]: Renal toxicity in cynomolgus monkey assessed as minimal thymic lymphoid depletion at >= 300 mg/kg/day measured for 14 days. Format: organism-based, Macaca fascicularis. Conditions: in vivo, 336 h, time 14 day.
Series [20] in a line: Oral bioavailability in cynomolgus monkey at 1 mg/kg measured upto 24 hrs by LC-MS/MS analysis. Type of series: ADME, organism-based, Macaca fascicularis. Conditions: in vivo.
The nature of series [21]: Half life in Sprague-Dawley rat at 1 mg/kg, iv measured upto 24 hrs by LC-MS/MS analysis. Type of series: ADME, organism-based. Conditions: in vivo.
Series [22] in a line: Plasma protein binding in cynomolgus monkey relative to control. Format: ADME, cell-free, Macaca fascicularis. Conditions: read-out: PPB (converted).
Series [23] in a line: Kinetic solubility of compound. Type of series: physicochemical. The note with it: read-out: Kinetic_solubility.
Series [24] is described as follows: Volume of distribution at steady state in Sprague-Dawley rat at 1 mg/kg, po or 1 mg/kg, iv measured upto 24 hrs by LC-MS/MS analysis. Format: ADME, organism-based. Conditions: in vivo.
The target of series [25] is T1, hERG (KCNH2). Description: Inhibition of hERG at 10 uM relative to control. Type of series: toxicity.
Series [26] can be described thus: Renal toxicity in cynomolgus monkey assessed as increase in blood urea nitrogen at 100 to 300 mg/kg/day for 14 days. Type of series: organism-based, Macaca fascicularis. Conditions: in vivo, 336 h, dose 100-300 mg/kg/day, time 14 day.
The nature of series [27]: Renal toxicity in cynomolgus monkey assessed as retrograde nephropathy at 100 to 300 mg/kg/day for 14 days. Type of series: organism-based, Macaca fascicularis. The note with it: in vivo, 336 h, dose 100-300 mg/kg/day, time 14 day.
The nature of series [28]: Renal toxicity in cynomolgus monkey assessed as increase in kidney weight at 100 to 300 mg/kg/day for 14 days. Conditions: in vivo, 336 h, dose 100-300 mg/kg/day, time 14 day. Type of series: organism-based, Macaca fascicularis.
Series [29] is described as follows: Cytotoxicity against human hepatocyte. Type of series: toxicity, cell-based. Conditions: hepatocytes.
Series [30] can be described thus: Renal toxicity in cynomolgus monkey at 100 mg/kg/day for 14 days. Format: organism-based, Macaca fascicularis. The note with it: in vivo, 336 h, time 14 day.

Molecules are shown by their SMILES. Converted amounts (≈) assume the structure as drawn. The source made the active and inactive calls. The rule behind the calls is not given here. A value given as a limit tells only on which side of the number the result lay.

T1 sequence (Q12809 whole entry): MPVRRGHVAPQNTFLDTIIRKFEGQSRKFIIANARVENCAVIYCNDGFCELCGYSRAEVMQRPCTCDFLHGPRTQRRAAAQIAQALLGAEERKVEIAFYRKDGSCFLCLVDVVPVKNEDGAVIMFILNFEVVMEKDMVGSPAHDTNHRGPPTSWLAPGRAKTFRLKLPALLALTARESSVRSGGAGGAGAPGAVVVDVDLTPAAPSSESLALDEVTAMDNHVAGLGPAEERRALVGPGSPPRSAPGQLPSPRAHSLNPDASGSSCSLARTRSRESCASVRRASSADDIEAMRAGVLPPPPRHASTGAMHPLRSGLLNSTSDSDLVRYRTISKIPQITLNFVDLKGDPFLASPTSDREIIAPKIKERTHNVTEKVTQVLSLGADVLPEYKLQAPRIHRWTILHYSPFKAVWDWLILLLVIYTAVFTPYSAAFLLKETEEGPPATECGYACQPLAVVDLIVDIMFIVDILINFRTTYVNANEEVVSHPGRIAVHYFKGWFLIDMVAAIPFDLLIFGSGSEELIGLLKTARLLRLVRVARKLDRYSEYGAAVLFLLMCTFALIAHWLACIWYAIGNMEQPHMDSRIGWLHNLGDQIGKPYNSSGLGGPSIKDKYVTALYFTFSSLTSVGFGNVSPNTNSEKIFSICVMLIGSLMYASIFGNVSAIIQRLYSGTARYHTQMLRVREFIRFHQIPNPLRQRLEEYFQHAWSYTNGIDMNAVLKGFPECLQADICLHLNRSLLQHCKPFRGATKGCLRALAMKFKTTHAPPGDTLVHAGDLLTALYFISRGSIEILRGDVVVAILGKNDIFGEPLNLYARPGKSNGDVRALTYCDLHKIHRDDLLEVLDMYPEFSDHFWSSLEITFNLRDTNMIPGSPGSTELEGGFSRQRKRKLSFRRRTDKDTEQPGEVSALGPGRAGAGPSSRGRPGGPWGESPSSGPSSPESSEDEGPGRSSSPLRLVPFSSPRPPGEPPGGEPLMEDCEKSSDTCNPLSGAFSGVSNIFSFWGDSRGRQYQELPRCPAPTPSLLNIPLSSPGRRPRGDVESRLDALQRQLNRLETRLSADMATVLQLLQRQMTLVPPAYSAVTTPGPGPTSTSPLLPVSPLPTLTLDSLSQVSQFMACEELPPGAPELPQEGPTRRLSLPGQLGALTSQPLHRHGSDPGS

Regarding `C=CC1=C(C(=O)O)N2C(=O)[C@@H](NC(=O)/C(=N\OCOC(=O)C(C)(C)C)c3csc(N)n3)C2SC1` (stereo partly drawn), in the series on Rattus norvegicus, the result was Active.

For the molecule `CN[C@@H]1COc2c(S(=O)(=O)NC(=O)Nc3c4c(cc5c3CCC5)CCC4)cnn2C1`, the half-life in series [1] is 1.2 h; in series [8] it was 0.89 h; in series [13], 0.99 h; in [21] it was 4.4 h. In addition, the inhibition at 1 µM against hERG (KCNH2) [2] is -3.1%. Moreover, the fraction unbound in series [3] was 0.07; in series [6], 0.114; in [10], 0.044; in series [11], 0.024; in series [22], 0.082. Besides, the Activity result in series [4], in series [9] and in [19] was “Non-Toxic” in each case. For the same molecule, the bioavailability in series [5] worked out at 33%; in series [16] it was 78%; in series [18], 80%; in series [20] it was 53%. In series [7], the Papp A→B came to 0.077 ×10⁻⁶ cm/s. The Vdss in series [12] was 0.18 L/kg; in series [14], 0.67 L/kg; in series [15] it was 0.72 L/kg; in [24], 0.29 L/kg. Further, the solubility result in series [17] was “Soluble”. The solubility kinetic at 24 h in series [23] turned out to be 105 µM (≈ 45.3 µg/mL). Also, on hERG (KCNH2) [25], the inhibition at 10 µM came to 0.2%.

With `O=C(Nc1c2c(cc3c1CCC3)CCC2)NS(=O)(=O)c1cnn2c1OCCC2` [JT-001], the half-life in series [1] is 1.9 h; in [8], 1.4 h; in series [13], 2.9 h; in series [21], 1.1 h. Besides, at hERG (KCNH2) [2], the inhibition at 1 µM came to 4.1%. Besides, the Activity entry in [26], in [27], in [28] and in series [30] was “Toxic” each time. Further, the fraction unbound is 0.014 in [3]; 0.045 in series [6]; 0.014 in [10]; 0.009 in series [11]; 0.04 in series [22]. Besides, the bioavailability in [5] came to 30%; in series [16], 28%; in series [18], 18%; in [20], 17%. Besides, the Papp A→B in [7] was 1.8 ×10⁻⁶ cm/s. For the same molecule, the Vdss in series [12] was found to be 0.08 L/kg; in series [14], 0.2 L/kg; in series [15], 0.2 L/kg; in [24] it was 0.2 L/kg. In series [29], this molecule registered a concentration for half-maximal inhibition (IC50) of over 100 µM. The solubility result in series [17] was “Soluble”. The solubility kinetic at 24 h in series [23] was determined as 102 µM (≈ 41.1 µg/mL). Besides, the inhibition at 10 µM on hERG (KCNH2) [25] amounted to 9.7%.

These data come from ChEMBL document CHEMBL5214989, “Overcoming Preclinical Safety Obstacles to Discover (S)-N-((1,2,3,5,6,7-Hexahydro-s-indacen-4-yl)carbamoyl)-6-(methylamino)-6,7-dihydro-5H-pyrazolo[5,1-b][1,3]oxazine-3-sulfonamide (GDC-2394): A Potent and Selective NLRP3 Inhibitor” (J Med Chem, 2022).
